Reference: US8546320B2, “Hsp9O-targeted anti-cancer chimeric peptide” (Kyoto University, priority 2008, dated 2013)
Where two headings read alike, the source gives them in different places. Values belong to the compound of their own block, whether it stands above or below them. Where a SMILES comes first, the peptide text is derived from it.

What was measured:
Caki-1 [1] = assay type: cell-based, human
A549 = assay type: cell-based; settings: 24 h
OE19 = assay type: cell-based; settings: 24 h
Experimental: (§1) A total of 3×10^3 cells were inoculated per well on a 96 well plate and cultured in a medium containing 10% FBS for 24 hours, and incubated with 100 μl of a peptide having a gradual increase in concentration at 37° C. for 48 to 72 hours. The survival rate of the cells was measured by using WST-8 solution (Cell Count Reagent SF; Nacalai Tesque, Inc.).
(§2) A total of 3×10^3 cells per well were inoculated onto a 96 well plate, and incubated in a medium containing 10% FBS with 100 μl of a peptide diluted stepwise at 37° C. for 48 to 72 hours. The survival rate of the cells was measured by using WST-8 solution (Cell Count Reagent SF; Nacalai Tesque, Inc.).

BT-20 = assay type: cell-based, human; settings: 24 h
Experimental: as §1, §2

U937 [2] = experiment: cells; assay type: cell-based, human
Experimental: as §2

HL-60 = experiment: cells; assay type: cell-based, human
Experimental: as §2

K562 = experiment: cells; assay type: cell-based, human
Experimental: as §2

THP-1 = experiment: cells; assay type: cell-based, human
Experimental: as §2

MDA-MB-231 = assay type: cell-based; settings: 24 h
LNCap = assay type: cell-based, human
BXPC-3 = assay type: cell-based, human
[3] = tested on: Human pancreatic cancer cells (Bxpc 3); experiment: Anti-tumor effect in cancer-bearing animal models, local administration; assay type: in vivo; settings: site of administration and behavior observed
Experimental: Human pancreatic cancer cells (Bxpc 3) (5.0×10^6) were suspended in 150 μl of phosphate-buffered physiological saline (PBS) and transplanted subcutaneously into nude mice (BALB/c Slc-nu/nu). After 5 days, 150 μl of the Antp-TPR peptide suspended in PBS at a concentration of 1 mg/kg to 5 mg/kg was administered to the solid cancer every two days for a total of nine times, and the tumor contraction effect was examined. The tumor diameter was measured with calipers and the tumor volume (mm^3) was calculated according to the formula: length (mm)×minor diameter (mm)^2×0.5.

leukemia cell strains = assay type: cell-based, human
Experimental: as §2

cancer cells = experiment: Cell viability assay, summary statements on cancer cells; assay type: cell-based; settings: 24 h
T47D = assay type: cell-based, human; settings: Breast cancer T47D; read-out: Anti-tumor activity, IC50 (μM) ± SD
Experimental: as §1

MRC-5 = assay type: cell-based, human; settings: Normal cell MRC5; read-out: Anti-tumor activity, IC50 (μM) ± SD
Experimental: as §1

HEK293 = experiment: cells; assay type: cell-based, human; settings: Normal cell HEK; read-out: Anti-tumor activity, IC50 (μM) ± SD
Experimental: as §1, §2

[4] = target: T1, interaction between Hsp90 and the Hop's TPR2A domain (Homo sapiens, UniProt P07900); experiment: BIACORE competition: Hsp90 pre-mixed with peptide, added to immobilized TPR2A; assay type: binding; settings: for Binding of Hsp90 (%): to immobilized TPR2A
T1 construct: histidine tag; made in house; host or cells: Hsp90: E. coli BL21 (pDEST17-Hsp90)
Excerpt: It was examined whether the TPR peptide designed could compete specifically with the interaction between Hsp90, which is essential for the accurate folding of some carcinogenic protein including survivin in cancer cells, and the Hop's TPR2A domain.

Caki-1 [5] = assay type: cell-based, human; settings: Caki-1, 68 μM
Experimental: The TPR peptide or the TPR scramble peptide was mixed with a commercially available transfection reagent (Profect-P2 or, Lipofectamine LTX) and the mixture was left to incubate at room temperature for 20 minutes, to form liposome before the complex was added to cancer cells (Caki-1 (kidney cancer cells)); the survival rate of the cells was then measured by using WST-8 solution (Cell Count Reagent SF; Nacalai Tesque, Inc.) and the results were compared with those such as in the case of the TPR scramble peptide or the liposome alone.

U937 [6] = experiment: Penetration experiment, confocal microscope, U937; assay type: cell-based, human; settings: U937, TAMRA-labeled peptide 10 μM, 1 hour
Experimental: TPR-TAMRA (TAMRA labeled body) or Antp-TPR-TAMRA (TAMRA labeled body) was added to 1×10^6 peripheral blood mononuclear cells (PBMCs), which were prepared from U937 cells, a mouse leukemia cell strain EL4 or mouse peripheral blood, at a final concentration of 10 μM, and the mixture was cultured for 1 hour. The peptide incorporated in the cell or influx of the medium into the cell after peptide penetration was observed under a confocal microscope (Olympus FV1000 (Olympus)), using a medium containing calcein.
TPR-TAMRA (TAMRA labeled body) or Antp-TPR-TAMRA (TAMRA labeled body) was added to 1×10^6 U937 cells to a final concentration of 10 μM; the mixture was cultured for one hour; and then the behavior of the peptide incorporated into the cell or the influx of the medium into the cell after peptide penetration was observed under a confocal microscope (Olympus FV1000 (Olympus)), using a calcein-containing medium.

Compound: CC[C@H](C)[C@H](NC(=O)[C@H](CCCNC(=N)N)NC(=O)[C@H](C)NC(=O)[C@H](Cc1ccc(O)cc1)NC(=O)[C@H](C)NC(=O)[C@H](CCCCN)NC(=O)[C@H](CCCCN)NC(=O)[C@H](CCCCN)NC(=O)[C@H](Cc1c[nH]c2ccccc12)NC(=O)[C@H](CCCCN)NC(=O)[C@H](CCSC)NC(=O)[C@H](CCCNC(=N)N)NC(=O)[C@H](CCCNC(=N)N)NC(=O)[C@H](CC(N)=O)NC(=O)[C@H](CCC(N)=O)NC(=O)[C@H](Cc1ccccc1)NC(=O)[C@H](Cc1c[nH]c2ccccc12)NC(=O)[C@@H](NC(=O)[C@H](CCCCN)NC(=O)[C@@H](NC(=O)[C@H](CCC(N)=O)NC(=O)[C@@H](N)CCCNC(=N)N)[C@@H](C)CC)[C@@H](C)CC)C(=O)NCC(=O)N[C@@H](CC(N)=O)C(=O)N[C@@H](CO)C(=O)N[C@@H](Cc1ccc(O)cc1)C(=O)N[C@@H](Cc1ccccc1)C(=O)N[C@@H](CCCCN)C(=O)O [Antp-TPR] (H-RQIKIWFQNRRMKWKKKAYARIGNSYFK-OH; N-terminus and C-terminus assumed)
IC50 (Caki-1 [1]; 24 h): 43.3 ± 3 µM
IC50 (A549): 52.9 ± 2.5 µM
IC50 (OE19): 29.9 ± 3.4 µM
IC50 (BT-20): 32.8 ± 5.5 µM
Cell Survival Rate (%) (U937 [2]): 23.24%
IC50 (U937 [2]): 25.2 µM
IC50 (HL-60): 46.4 µM
IC50 (K562): 54.2 µM
IC50 (THP-1): 24.7 µM
IC50 (MDA-MB-231): 56.9 ± 12.3 µM
IC50 (LNCap; 24 h): 49.1 ± 3 µM
IC50 (BXPC-3; 24 h): 39.8 ± 2.2 µM
toxicity to the mice [3]: little toxicity to the mice
IC50 (leukemia cell strains): 20 to 60 µM
IC50 (cancer cells): 20 to 60 µM

IC50 (T47D): > 352 µM
IC50 (Caki-1 [1]; Kidney cancer Caki-1, read-out: Anti-tumor activity, IC50 (μM) ± SD): > 352 µM
Binding of Hsp90 (%) ([4]; peptide 1.411 μM): 88.19%
Binding of Hsp90 (%) ([4]; peptide 14.11 μM): 84.60%
Binding of Hsp90 (%) ([4]; peptide 141.1 μM): 72.26%
Binding of Hsp90 (%) ([4]; peptide 282.2 μM): 29.75%
Binding of Hsp90 (%) ([4]; peptide 705.5 μM): 0%
IC50 (LNCap; Prostate cancer LNcap, read-out: Anti-tumor activity, IC50 (μM) ± SD): > 352 µM
IC50 (BXPC-3; Pancreatic cancer Bxpc3, read-out: Anti-tumor activity, IC50 (μM) ± SD): > 352 µM
Compound: CC[C@H](C)[C@H](NC(=O)[C@H](CCCNC(=N)N)NC(=O)[C@H](C)NC(=O)[C@H](Cc1ccc(O)cc1)NC(=O)[C@H](C)NC(=O)[C@@H](N)CCCCN)C(=O)NCC(=O)N[C@@H](CC(N)=O)C(=O)N[C@@H](CO)C(=O)N[C@@H](Cc1ccc(O)cc1)C(=O)N[C@@H](Cc1ccccc1)C(=O)N[C@@H](CCCCN)C(=O)O [TPR]
IC50 (MRC-5): > 352 µM
IC50 (HEK293): > 352 µM
Cell Survival Rate (%) (U937 [2]): 92.79%
Anti-cancer activity (% relative to wild-type peptide) (U937 [2]; U937, wild-type peptide = 100%): 9.39%
Decrease in cell survival rate (% relative to wild-type peptide) (U937 [2]; U937, wild-type peptide = 100%): 25.04%
inhibition of the interaction between Hsp90 and TPR2A ([4]; increasing peptide concentration): exerts an influence on the interaction between Hsp90 and TPR2A
killing effect after introduction with transfection reagent (Caki-1 [5]): observed when the TPR peptide was introduced
intracellular penetration (U937 [6]): did not penetrate into the cell
